Converted amounts (≈) assume the structure as drawn.
Tests used:
[1] = test system: Candida albicans; assay: Antifungal activity against Candida albicans after 48 hrs by microbroth dilution technique; format: functional
[2] = test system: Sporothrix schenckii; assay: Antifungal activity against Sporothrix schenckii after 72 hrs by microbroth dilution technique; format: functional
[3] = test system: Candida parapsilosis; assay: Antifungal activity against Candida parapsilosis after 48 hrs by microbroth dilution technique; format: functional
[4] = test system: Aspergillus fumigatus; assay: Antifungal activity against Aspergillus fumigatus after 72 hrs by microbroth dilution technique; format: functional
[5] = test system: Cryptococcus neoformans; assay: Antifungal activity against Cryptococcus neoformans after 72 hrs by microbroth dilution technique; format: functional
[6] = test system: Trichophyton mentagrophytes; assay: Antifungal activity against Trichophyton mentagrophytes after 96 hrs by microbroth dilution technique; format: functional
[7] = test system: L929; assay: Cytotoxicity against mouse L929 cells up to 3.12 ug/ml after 24 hrs using Giemsa staining by phase contrast microscopy; format: cell-based; conditions: l929, 24 h
[8] = test system: L929; assay: Cytotoxicity against mouse L929 cells at >3.12 ug/ml after 24 hrs using Giemsa staining by phase contrast microscopy; format: cell-based; conditions: l929, 24 h
[9] = Candida albicans, 48 h, read-out: MIC
[10] = Sporothrix schenckii, 72 h, read-out: MIC
[11] = Lodderomyces parapsilosis, 48 h, read-out: MIC
[12] = Aspergillus fumigatus, 72 h, read-out: MIC
[13] = Cryptococcus neoformans, 72 h, read-out: MIC
[14] = Trichophyton mentagrophytes, 96 h, read-out: MIC

For `CCCCCCc1cn(C[C@@](O)(Cn2cncn2)c2ccc(F)cc2F)nn1`, the MIC [1, 9] was 0.0225 µg/mL (≈ 0.0576 µM), the MIC [2, 10] was 0.78 µg/mL (≈ 2 µM) and the MIC [3, 11] was 0.19 µg/mL (≈ 0.487 µM). The MIC [4, 12] was 50 µg/mL (≈ 128 µM), the MIC [5, 13] was 50 µg/mL (≈ 128 µM) and the MIC [6, 14] was 6.25 µg/mL (≈ 16 µM).

For `CCCCCCc1cn(C[C@](O)(Cn2cncn2)c2ccc(F)cc2F)nn1`, the MIC [1, 9] was 50 µg/mL (≈ 128 µM), the MIC [2, 10] was 50 µg/mL (≈ 128 µM) and the MIC [3, 11] was > 50 µg/mL. For the same compound, the MIC [4, 12] was > 50 µg/mL, the MIC [5, 13] was 50 µg/mL (≈ 128 µM) and the MIC [6, 14] was 50 µg/mL (≈ 128 µM).

With `CCCCCCCCn1nncc1CC(O)(Cn1cncn1)c1ccc(F)cc1F` (racemic) the MIC [1, 9] was 0.39 µg/mL (≈ 0.932 µM), the MIC [2, 10] was 6.25 µg/mL (≈ 14.9 µM) and the MIC [3, 11] was 50 µg/mL (≈ 119 µM). For the same compound, the MIC [4, 12] was > 50 µg/mL, the MIC [5, 13] was 50 µg/mL (≈ 119 µM) and the MIC [6, 14] was 50 µg/mL (≈ 119 µM).

For `CCCCCCc1cnnn1CC(O)(Cn1cncn1)c1ccc(F)cc1F` (racemic), the MIC [1] was 0.078 µg/mL (≈ 0.2 µM), the MIC [2] was 3.12 µg/mL (≈ 7.99 µM) and the MIC [3, 11] was > 50 µg/mL. For the same compound, the MIC [4, 12] was 25 µg/mL (≈ 64 µM), the MIC [5, 13] was 50 µg/mL (≈ 128 µM) and the MIC [6, 14] was 50 µg/mL (≈ 128 µM).

With `CCCCCCCCn1cc(CC(O)(Cn2cncn2)c2ccc(F)cc2F)nn1` (racemic) the Activity [7] was “Non-toxic”, the MIC [1] was 0.007 µg/mL (≈ 0.0167 µM) and the Activity [8] was “Toxic”. For the same compound, the MIC [2] was 0.045 µg/mL (≈ 0.108 µM), the MIC [3] was 0.0112 µg/mL (≈ 0.0268 µM) and the MIC [4] was 3.12 µg/mL (≈ 7.46 µM). It also gave an MIC [5, 13] of 25 µg/mL (≈ 59.7 µM) and an MIC [6] of 0.39 µg/mL (≈ 0.932 µM).

`CCCCCCc1cn(CC(O)(Cn2cncn2)c2ccc(F)cc2F)nn1` (racemic) gave an MIC [1, 9] of 0.09 µg/mL (≈ 0.231 µM), an MIC [2, 10] of 0.78 µg/mL (≈ 2 µM) and an MIC [3, 11] of 0.39 µg/mL (≈ 0.999 µM). It also gave an MIC [4, 12] of 25 µg/mL (≈ 64 µM), an MIC [5, 13] of 25 µg/mL (≈ 64 µM) and an MIC [6, 14] of 12.5 µg/mL (≈ 32 µM).

`CCCCCCCCn1cc(CC(O)(Cn2cncn2)c2ccc(F)cc2F)nn1` (stereo in doubt; 2A) was tested, and the MIC [1] was 0.0011 µg/mL (≈ 0.00263 µM), the MIC [2] was 0.0225 µg/mL (≈ 0.0538 µM) and the MIC [3] was 0.0011 µg/mL (≈ 0.00263 µM). It also gave an MIC [6] of 0.19 µg/mL (≈ 0.454 µM).

`CCCCCCCCn1cc(CC(O)(Cn2cncn2)c2ccc(F)cc2F)nn1` (stereo in doubt; 2B) was tested, and the MIC [1] was 12.5 µg/mL (≈ 29.9 µM), the MIC [2] was 12.5 µg/mL (≈ 29.9 µM) and the MIC [3] was 50 µg/mL (≈ 119 µM). It also gave an MIC [4] of 50 µg/mL (≈ 119 µM), an MIC [5] of 25 µg/mL (≈ 59.7 µM) and an MIC [6] of 25 µg/mL (≈ 59.7 µM).

`CCCCCCc1cnnn1CC(O)(Cn1cncn1)c1ccc(F)cc1F` (stereo in doubt; 9A) showed an MIC [1] of 0.039 µg/mL (≈ 0.0999 µM), an MIC [2] of 1.56 µg/mL (≈ 4 µM) and an MIC [3] of 50 µg/mL (≈ 128 µM). The MIC [4] was >50 µg/mL and the MIC [5] was 50 µg/mL (≈ 128 µM).

For `CCCCCCc1cnnn1CC(O)(Cn1cncn1)c1ccc(F)cc1F` (stereo in doubt; 9B), the MIC [1] was >50 µg/mL, the MIC [2] was >50 µg/mL and the MIC [5] was >50 µg/mL. The MIC [6] was 50 µg/mL (≈ 128 µM).

With `C[C@@H]1[C@H](O)[C@@H](C)/C=C/C=C/C=C/C=C/C=C/C=C/C=C/[C@H](O[C@@H]2O[C@H](C)[C@@H](O)[C@H](N)[C@@H]2O)C[C@@H]2O[C@](O)(C[C@@H](O)C[C@@H](O)[C@H](O)CC[C@@H](O)C[C@@H](O)CC(=O)O[C@H]1C)C[C@H](O)[C@H]2C(=O)O` [AMPHOTERICIN B] the MIC [1, 9] was 0.12 µg/mL (≈ 0.13 µM), the MIC [2, 10] was 0.12 µg/mL (≈ 0.13 µM) and the MIC [3, 11] was 0.12 µg/mL (≈ 0.13 µM). The MIC [4, 12] was 0.5 µg/mL (≈ 0.541 µM), the MIC [5, 13] was 0.06 µg/mL (≈ 0.0649 µM) and the MIC [6, 14] was 0.12 µg/mL (≈ 0.13 µM).

`OC(Cn1cncn1)(Cn1cncn1)c1ccc(F)cc1F` [FLUCONAZOLE] gave an MIC [1, 9] of 0.5 µg/mL (≈ 1.63 µM), an MIC [2, 10] of 2 µg/mL (≈ 6.53 µM) and an MIC [3, 11] of 1 µg/mL (≈ 3.27 µM). It also gave an MIC [4, 12] of 2 µg/mL (≈ 6.53 µM), an MIC [5, 13] of 1 µg/mL (≈ 3.27 µM) and an MIC [6, 14] of 1 µg/mL (≈ 3.27 µM).

Reference: ChEMBL document CHEMBL3217659, “Synthesis and antifungal activity of 1,5-disubstituted-1,2,3-triazole containing fluconazole analogues” (Medchemcomm, 2012)
